{"source": "patent US20100244818A1", "about": "“APPARATUS AND METHOD FOR TRANSDUCING AN IN VITRO OR MAMMALIAN SYSTEM WITH A LOW-FREQUENCY SIGNAL” (priority 2006, published 2010)", "key": {"[1]": {"conditions": "the compound itself; not examined in the study; cited from earlier work"}, "tubulin": {"test_system": "tubulin", "assay": "tubulin aggregation (polymerization) assay, OD 340 nm", "assay_type": "biochemical", "from_the_text": "This assay has been described, for example, in Shelanski, M. L., Gaskin, F. and Cantor, C. R. (1973). Microtubule assembly in the absence of added nucleotides. Proc. Natl. Acad. Sci. U.S.A. 70, 765-768; and Lee, J. C. and Timasheff, S. N. (1977). In vitro reconstitution of calf brain microtubules: effects of solution variable. Biochemistry, 16, 1754-1762.\nThe assay protocol was designed for performing a single assay in a cuvette using a spectrophotometer set at 340 nm in a kinetic mode. HTS-Tubulin was purchased from Cytoskeleton, Inc. and is supplied in multiple vials as lyophilized protein. […]\nThe tubulin-assembly reaction was carried out by exposing the tubulin in GPEM buffer, at a concentration of 1.5 mg/ml to the following polymerization conditions: (i) a buffer (control), (ii) tubulin alone (2nd control); (iii) taxol, added to a final concentration of 4 μM, and (iv) the M2(3) taxol signal from above, transduced over a 20 minute period at a transduction voltage calculated to produce an approximately 1.693294 mG magnetic field. Change in optical absorption at 340 nm was measured continuously for each sample, and the OD340 data was used to calculate a rate of tubulin polymerization (dA/minute at 340 nm) at each one minute interval during the transduction study.\nThe Vmax of the reaction was also calculated for each sample at the end of the 20 minute assay period. […]"}}, "data": [{"compound": "CC(=O)O[C@H]1C(=O)[C@@]2(C)[C@H]([C@H](OC(=O)c3ccccc3)[C@]3(O)C[C@H](OC(=O)[C@H](O)[C@@H](NC(=O)c4ccccc4)c4ccccc4)C(C)=C1C3(C)C)[C@]1(OC(C)=O)CO[C@@H]1C[C@@H]2O", "note": "[taxol]", "values": [{"measurement": "delivery to the brain", "setting": "[1]", "value": "poorly deliver to the brain"}, {"measurement": "rate of tubulin polymerization (dA/minute at 340 nm)", "setting": "tubulin; at two minutes, taxol 4 μM, FIG. 16B", "value": "increased significantly"}, {"measurement": "Vmax (single composite, maximum rate of reaction over the entire assay)", "setting": "tubulin; taxol at 4 μM, tubulin 1.5 mg/ml in GPEM buffer, end of 20 minute assay, FIG. 17", "value": "~1.8"}]}]}
